Source: US6056950A, “Ophthalmic solutions viscosified with tamarind seed polysaccharide” (Farmigea S.p.A., priority 1996, dated 2000)

Assay: Residence time / pharmacokinetics of pilocarpine in the tear fluid
Parameters: species or system male New Zealand albino rabbits
Conditions: rabbit, in vivo
From the text: Specifically, all of the ophthalmic preparations employed in the tests shown herein contain 2.0% by weight of pilocarpine nitrate (PiNO3), but the control preparation referred to in the following table as RS (i.e. reference solution) is an aqueous solution without any thickening agent, while the preparation according to the invention, referred to below as "TSP", is formulated according to Example 2.1.
All of the tests described herein have been carried out on male New Zealand albino rabbits weighing 3-3.5 kg, non anesthesized and kept in standard stabling conditions, at a temperature of 18-20° C. Both the miotic effect and the residence time of the drug in the tear fluid were measured after instillation (at the time=0) of 25 μl of the preparation under study in the lower conjunctival sac of one eye of the rabbits, while the other eye served as a control.
In order to verify whether the product according to the invention was able to prolong, in comparison with other vehicles, the residence of the drug in the precorneal area, the following test was carried out: after instillation of one of the preparations under test, samples of tear fluid (1 μl) were collected, at suitable time intervals, from the rim portion of the lower conjunctival sac, using a microcapillary and avoiding any contact with the corneal epithelium. The tear fluid samples, transferred into microprobes, were diluted with water and analysed by HPLC.
The results of said test are reported, in terms of pilocarpine concentration (μg/μl) detected in the tear fluid as a function of time, in Table 9 and in the corresponding FIG. 7.
The differences in the performance of the various vehicles are better evidenced by the following table, reporting the pharmacokinetic parameters of pilocarpine in the tear fluid, in the various formulations, as calculated from the tests described above. The said parameters are as follows:
Ke : apparent clearance velocity constant
AUCrel : AUC relative to the reference solution
t1/2 : half-life time of the drug in the tear fluid
MRT: mean residence time of the drug in the tear fluid.

For HPMC, the “AUC t3min→∞” value was 23.13 µg·min/µL, the “AUCrel, AUC relative to the reference solution” value was 6.27 and the “Ke, apparent clearance velocity constant” value was 0.098 min⁻¹. The “MRT, mean residence time” value was 8.83 min, the “increase in half-life with respect to the reference solution” value was “almost of double” and the “pilocarpine concentration in the tear fluid” value (from here on “pilocarpine concentration”) (3 min) was 3.894 µg/µL. The “pilocarpine concentration” value (5 min) was 1.9 µg/µL, the “pilocarpine concentration” value (10 min) was 1.03 µg/µL and the “pilocarpine concentration” value (15 min) was 0.583 µg/µL. The “pilocarpine concentration” value (30 min) was 0.074 µg/µL, the “pilocarpine concentration” value (45 min) was 0.025 µg/µL and the “pilocarpine concentration” value (60 min) was 0.016 µg/µL.
